Reference: patent US20220331269A1, “COMPOSITIONS FOR TREATING ACNE” (Botanix Pharmaceuticals Ltd., priority 2017, published 2022)

Tested on: inflammatory lesions in patient with acne
Test: 2-(2-ethoxyethoxy)ethanol tested against an active ingredient (for example dapsone gel) in patients with acne
Format: in vivo, human
Text: Without being bound to any theory, we believe that the mechanism for this action is the 2-(2-ethoxyethoxy)ethanol may fluidize the lipids on the skin, thereby retarding the formation of microcomedones. If 2-(2-ethoxyethoxy)ethanol keep lipids from “gluing together” the desquamated keratinocytes, the number of clogged follicles, and subsequently the number of inflammatory lesions, would potentially be reduced. 2-(2-ethoxyethoxy)ethanol in the compositions of the present invention provides a means for stopping the formation of acne at its source; lipids and desquamated keratinocytes clogging pores leading to inflammation and formation of comedones. The compositions of the present invention may be active in clearing acne if used as a routine cleanser.

CCOCCOCCO [2-(2-ethoxyethoxy)ethanol]
number of inflammatory lesions: appears to have activity to reduce the number of inflammatory lesions
